“And” between values parts separate entries of the source, which are not always exact repeats. Identical values can stand only once.
What was measured:
male NMR^1 mice = assay: Anorectic effect: consumption of condensed milk by fasted mice after administration by gavage; assay type: in vivo
Protocol: The anorectic effect was tested on male NMR^1 mice. After withdrawal of feed for 24 hours, the test product was administered by gavage. The animals were housed singly and had free access to drinking water and, 30 minutes after administration of the product, they were offered condensed milk. The consumption of condensed milk was determined, and the general behavior of the animals was inspected, every half hour for 7 hours. The measured milk consumption was compared with that of untreated control animals.

Structure (SMILES) | melting point | Reduction in the cumulative milk consumption as % of the controls (male NMR^1 mice; oral dose 50 mg/kg by gavage, compared with untreated control animals, 7 hours) [%] | cumulative milk consumption by the treated animals (male NMR^1 mice; oral dose 50 mg/kg by gavage, feed withdrawn 24 hours, milk offered 30 minutes after administration, determined for 7 hours, 5 animals) | Remarks (general behavior / side effects of the animals) (male NMR^1 mice; oral dose 50 mg/kg, behavior inspected every half hour for 7 hours)
CN1C(=CN)SC2=C1c1ccc(Oc3ccc(Cl)cc3)cc1C2.Cl [Example 15, [6-(4-Chlorophenoxy)-3-methyl-3,8-dihydroindeno[1,2-d]thiazol-2-ylidene]methylamine hydrochloride] | 250 to 252 °C and 251 °C | – | – | –
Br.c1ccc(Oc2ccc3c(c2)CC2=C3N3CCN=C3S2)cc1 [Example 24, 7-Phenoxy-4H,9H-2,3-dihydroimidazo[2,1-b]indeno[1,2-d]thiazole hydrobromide] | – | 93 | 5/0.30 ml | none
Br.CN=c1sc2c(n1C)-c1cccc(-c3ccc(C(F)(F)F)cc3)c1C2 | 231 °C and 230 to 233 °C | – | – | –
Cl.Cn1c2c(sc1=NCC(=O)O)COc1ccc(F)cc1-2 | 256 °C | – | – | –
Br.CN1C(=CN)SC2=C1c1ccc(Cl)cc1C2 | 278 °C | – | – | –

— US20010011096A1, “Polycyclic thiazol-2-ylidene amines, processes for their preparation and their use as medicaments” (priority 1999, published 2001)
